Experimental data reported in PubChem BioAssay AID1985 (Southern Research Specialized Biocontainment Screening …, 2009).

Tested on: S. Typhi PhoP-promoter GFP reporter, fluorescence, 4 h
Test: PhoP regulon inhibitor project modified counter assay, GFP fluorescence readout, dose response (AID 1985)

SMILES | IC50 [µM]
CCCC(=O)NC(c1ccco1)c1cc([N+](=O)[O-])c2cccnc2c1O (stereo not drawn) | 8.65
CCc1ccc(CNCc2ccc(OCC(O)CN(C)Cc3ccccc3)cc2)nc1 (stereo not drawn) | 146
Clc1c(OCCCn2ccnc2)ccc2ccccc12 | 149
NC[C@@H]1O[C@H](C23CC4CC(CC(C4)C2)C3)Cc2c1ccc(O)c2O | 39.8
Cc1ccc(C(=O)NNC(=S)NC(=O)COc2ccccc2)cc1 | 47.5
CCCCCCCCCCCCCCCC[N+](C)(C)CC | 22.4
CCOC(=O)c1c(N)sc(C(=O)Nc2ccc3c(c2)OCO3)c1C | 137
O=C(N/N=C/c1ccccn1)c1ccc(Br)o1 | 50.1
O=C(NC(=S)NNC(=O)c1ccco1)c1ccc(Br)cc1 | 69
CS(=O)(=O)c1ccc([C@@H](O)[C@@H](CF)NC(=O)C(Cl)Cl)cc1 | 4.74
CCCCCCCNC(=O)C1(CC2CC(c3cccc(Br)c3)=NO2)CCNCC1 (stereo not drawn) | 46
Cc1c(N2C(=O)/C(=C3\C(=O)N(CC(=O)O)c4ccccc43)SC2=S)c(=O)n(-c2ccccc2)n1C | 91.6
O=C(NC(CO)Cc1ccc([N+](=O)[O-])cc1)C(Cl)Cl (stereo not drawn) | 4.59
Clc1cccc(CN2CCc3c([nH]c4ccccc34)C2)c1Cl | 104
CNCCCN1c2ccccc2CCc2ccccc21 | 143
Cc1nnc(N/N=C/c2ccccn2)[nH]c1=O | 31.1
c1ccc(-c2nc3ccccc3[nH]2)cc1 | 75
OC1CCCN(Cc2ccc3ccc4cccc5ccc2c3c45)C1 (stereo not drawn) | 118
O=C(N/N=C/c1cc(Cl)ccc1O)c1ccncc1 | 22
O=C(NC(=S)NNC(=O)c1cccs1)c1ccco1 | 39.7
Nn1cnnc1N/N=C\c1ccc(-c2ccccc2[N+](=O)[O-])o1 | 29
CCCCOCCCNc1ncnc2c1[nH]c1ccccc12 | 72.8
COc1cc(CNCCO)cc(Cl)c1OCc1ccc(Cl)cc1Cl | 39

SMILES | IC50 [µM]
CCN(CC)c1ccc(CNc2nc3ccccc3n2CCN2CCCCC2)cc1 | 145
O=C(Cn1nc(CNc2ccc(Br)cc2)[n+]2c1CCCCC2)c1ccc([N+](=O)[O-])cc1 | 78.8
CC1=NOC(=O)/C1=C/c1ccc(O)cc1 | 117
C#CCOCCOCCOCCNc1nc(N2CCN(C(=O)CCCCCCCCCCNC(=O)[C@H](CCCCN)n3cc(CCO)nn3)CC2)nc(N2CCN(C(=O)CCCCCCCCCCNC(=O)[C@H](CCCN=C(N)N)n3cc(C[C@@H](C)CC)nn3)CC2)n1 | 56.8
O=C(N/N=C/c1c[nH]c2ccccc12)c1ccc(Cl)cc1 | 123
c1ccc(Nc2ccnc(Nc3ccccc3)n2)cc1 | 67.2
CN(Cc1ccccc1O)CC1CCCN(CCc2ccc(Cl)cc2)C1 (stereo not drawn) | 51.6
Clc1ccc(OCCCNCc2ccccc2)c2ccccc12 | 33.8
CCCCOc1ccc(CSC(=N)N)cc1Cl | 31.9
O=C(N/N=C/c1ccc(O)c(O)c1)C1c2ccccc2Oc2ccccc21 | 106
COc1cc(/C=C/[N+](=O)[O-])ccc1O | 53.4
O=C(Nc1ccccc1)Nc1nccs1 | 128
Cc1cc(C)n(/N=C/c2cc([N+](=O)[O-])ccc2O)c(=O)c1 | 70.5
Oc1c(Cl)cc(CN2CCCCC2)c2cccnc12 | 15
[O-][n+]1cccc2c(Br)cc(Br)c(O)c21 | 21.9
O=C(Cn1cnc2ccccc21)Nc1ccc(SC(F)F)cc1 | 78
OC(CNCCc1ccc(Cl)cc1)COc1cc(Cl)ccc1Cl (stereo not drawn) | 36.6
Clc1ccc(C(c2ccccc2)N2CCNCC2)cc1 (stereo not drawn) | 144
COc1ccccc1C(C[N+](=O)[O-])c1c(N)n(C)c(=O)n(C)c1=O (stereo not drawn) | 79.1
NC1=NC[C@H](Cc2ccc(O)cc2)N1CCCCC1CCCCC1 | 25.5
COc1ccccc1Nc1c2ccccc2nc2ccccc12 | 80.8
CC(C)(C)/C(O)=C/c1nc2cc(Cl)ccc2oc1=O | 11.2
CC1COc2c(N3CCN(C)CC3)c(F)cc3c(=O)c(C(=O)O)cn1c23 (stereo not drawn) | < 0.23

SMILES | IC50 [µM]
CN(C)C1C(=O)C(C(N)=O)=C(O)C2(O)C(=O)C3=C(O)c4c(O)cccc4C(C)(O)C3C(O)C12 (stereo not drawn) | 1.54
CCCCCCC[N+](CC)(CC)CCCCc1ccc(Cl)cc1 | 80
Cc1ccc(S(=O)(=O)CCC(=O)c2ccc(O)cc2O)cc1 | 69.1
CCc1ccc(NC(=O)Nc2ccncc2)cc1 | 51.8
CCC(C)(C)c1ccc(OCCCC[n+]2ccccc2)c(C(C)(C)CC)c1 | 67.9
C#CCOCCOCCOCCNc1nc(N2CCN(C(=O)CCCCCCCCCCNC(=O)Cn3cc(CCCCCN)nn3)CC2)nc(N2CCN(C(=O)CCCCCCCCCCNC(=O)[C@H]([C@@H](C)CC)n3cc(CCCCN=C(N)N)nn3)CC2)n1 | 36.8
O=C1NCCCC1C(=O)N/N=C/c1cc([N+](=O)[O-])ccc1O (stereo not drawn) | 114
COc1ccc(Cl)cc1S(=O)(=O)N1CCN(C(=O)c2ccco2)CC1 | 145
CCc1ccc(-c2nn(-c3ccccc3)cc2CSC(=N)N)cc1 | 34.1
Cc1ccc(C(=O)N/N=C\c2ccc([N+](=O)[O-])s2)cn1 | 20
O=C(O)/C(=C\C(=O)c1ccccc1)Nc1ccccc1 | 20.5
CCn1cc(C(=O)O)c(=O)c2cc(F)c(N3CCN(C(=S)NC(=O)c4cc(OC)cc(OC)c4)CC3)cc21 | 3.11
Nc1nc(Nc2ccccc2)nc2ccccc12 | 56.2
COc1cc(Br)cc(/C=N/c2ncn[nH]2)c1O | 81.3
O=c1[nH]c(=S)ccn1C1OC(CO)C(O)C1O (stereo not drawn) | 1.74
CCc1cccc2c(C(=O)COC(=O)c3ccc([N+](=O)[O-])s3)c[nH]c12 | 10.4
CNCCCC1Sc2ccccc2Oc2ccccc21 (stereo not drawn) | 144
C#CCOCCOCCOCCNc1nc(N2CCN(C(=O)CCCCCCCCCCNC(=O)[C@H]([C@@H](C)CC)n3cc(CCCCN=C(N)N)nn3)CC2)nc(N2CCN(C(=O)CCCCCCCCCCNC(=O)[C@H](CO)n3cc(CCCCCN)nn3)CC2)n1 | 32.8
CN1CCN(c2ccc(NC(=O)c3ccc(-c4ccc(Br)cc4)o3)cc2)CC1 | 83.3
O=C(Nc1cccc(Br)c1)c1cc2ccccc2o1 | 47.4
O=C(N/N=C/c1ccccc1O)C1SCCCS1 | 82.7
CN(C)c1ccc(O)c2c1CC1CC3[C@@H](N(C)C)C(=O)C(C(N)=O)=C(O)[C@]3(O)C(=O)C1=C2O (stereo partly drawn) | 5.1
CCC(=O)N1CCN(c2cc3c(cc2F)c(=O)c(C(=O)O)cn3CC)CC1 | 126

SMILES | IC50 [µM]
CC(C)(c1ccccc1)c1ccc(OCCCN2CCNCC2)cc1 | 114
Fc1ccc([C@@H]2CCNC[C@H]2COc2ccc3c(c2)OCO3)cc1 | 77.5
N#C/C(=N\Nc1ccc([N+](=O)[O-])cc1)C(N)=S | 110
Cc1ccc(S(=O)(=O)NNc2ccccc2)c(C)c1 | 117
COc1ccc(C(=O)N/N=C/c2sc3ccccc3c2O)cc1 | 44.2
COc1cc([N+](=O)[O-])cc(/C=N/NC(=O)C(O)(c2ccccc2)c2ccccc2)c1O | 57.5
O=C(Oc1ccc[nH]c1=O)c1cc([N+](=O)[O-])cc([N+](=O)[O-])c1 | 46
CCOC(=O)N1CCN(Cc2cc(Cl)c3cccnc3c2O)CC1 | 37.8
CN(C)CCCN(C(=O)CCc1ccccc1)c1nc2ccc(Br)cc2s1 | 110
O=C1CC(NC(=O)C(F)(F)F)=NN1c1ccccc1 | 143
Cc1ccc(Nc2cc(C)nn2-c2nc(C)cc(=O)[nH]2)cc1 | 10.2
CCCCCCCCNc1ncnc2ccccc12 | 35.8
CN1CCN(C2=Cc3ccccc3Sc3cc(F)c(F)cc32)CC1 | 74.6
CCCCCCCCCCCCCCCC[n+]1cccc(C(=O)N(CC)CC)c1 | 20.1
O=C(Nc1ccc([N+](=O)[O-])cc1Cl)c1cc(Cl)ccc1O | 76
N/C(=N\N=C/c1ccc(F)cc1)N/N=C\c1ccc(F)cc1 | 75.1
CCn1cc(C(=O)NCCN(C)C)c(=O)c2cc(F)c(N3CCN(C)CC3)cc21 | 34
O=C(Nc1ccc(-c2nc3ccccc3[nH]2)cc1)c1ccco1 | 87
CC(NCc1ccc(Cl)c(Cl)c1)C(O)c1ccccc1 (stereo not drawn) | 82.3
Cc1cccc(OCC(O)Cn2c(=N)n(CCN3CCCCC3)c3ccccc32)c1 (stereo not drawn) | 50.2
CC(=O)Oc1ccccc1C(=O)Nc1ncc([N+](=O)[O-])s1 | 149
CN1CC=C(/C=C/c2ccc(-c3ccccc3)cc2)CC1 | 95.2
Cc1cc(/C=C\c2ccc3cc(N(C)C)ccc3[n+]2C)c(C)n1-c1ccccc1 | 32

SMILES | IC50 [µM]
CCCCCCCCCCCCCCCC[N+](C)(C)C | 19.3
CCCCCOc1ccc(CSC(=N)N)cc1[N+](=O)[O-] | 20.9
Cc1ccc(-c2csc(N=C(N)N)n2)c(C)c1 | 64.8
CN(C)C1C(=O)C(C(N)=O)=C(O)C2(O)C(=O)C3=C(O)c4c(O)cccc4C(C)(O)C3CC12 (stereo not drawn) | 2.08
Oc1[nH]c2ccc(Br)cc2c1N=NC(=S)N1CCOCC1 | 47.3
C#CCOCCOCCOCCNc1nc(N2CCN(C(=O)CCCCCCCCCCNC(=O)[C@H](CCCCN)n3cc(C[C@@H](C)CC)nn3)CC2)nc(N2CCN(C(=O)CCCCCCCCCCNC(=O)[C@@H]([C@H](C)O)n3cc(C)nn3)CC2)n1 | 138
O=C(Nc1nnc(-c2ccccn2)o1)c1cccc(Cl)c1 | 107
COc1ccc(Nc2ccnc3ccccc23)cc1 | 85.8
Cc1cc(OCCCCCNCCO)cc(C)c1Cl | 147
C#CCOCCOCCOCCNc1nc(N2CCN(C(=O)CCCCCCCCCCNC(=O)[C@@H](CCSC)n3cc(CCO)nn3)CC2)nc(N2CCN(C(=O)CCCCCCCCCCNC(=O)[C@H]([C@@H](C)CC)n3cc(CCCCCN)nn3)CC2)n1 | 110
CCCCN(CCCC)C(=O)c1cn(CC)c2cc(N3CCN(C)CC3)c(F)cc2c1=O | 7.43
CS(=O)(=O)c1ccc2nc(NC(=O)c3ccc(Cl)nc3)sc2c1 | 81.9
O=c1cc(-c2ccc(O)cc2)oc2c(O)c(O)c(O)c(O)c12 | 40.2
COc1ccccc1N1CCN(Cc2ccc(O)c3ncccc23)CC1 | 72
O=C(/C=C/c1ccco1)NC(=S)NNC(=O)c1ccco1 | 111
C[C@H]1COc2c(N3CCN(C)CC3)c(F)cc3c(=O)c(C(=O)O)cn1c23 | < 0.23
CN1CCc2nc(SCC(=O)Nc3ccc(Cl)cc3)c(C#N)cc2C1 | 67.2
O=C(CC(=O)c1ccccc1O)c1cccc(F)c1 | 37.9
COc1ccc(CNc2ncnc3c2[nH]c2ccccc23)cc1 | 59.2
CC12CN3CC(C)(CN(C1)C3c1ccc(Br)cc1O)C2 (stereo not drawn) | 133
COc1ccc(CNCCc2cccc(F)c2)c2ccccc12 | 81.7
